According to patent US10633407B2, “14-membered ketolides and methods of their preparation and use” (President and Fellows of Harvard College, priority 2014, dated 2020):
Values after ≈ are worked out from the molar mass of the structure shown.

Legend:
Test in all cases: CLSI broth dilution MIC determination
Type in all cases: cell-based
S. pneumoniae ATCC 49619 = settings: S. pneumoniae ATCC 49619; Gram-positive
How it was run: (§1)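 Method: CLSI broth dilution; endpoint: MIC. Macrolide controls azithromycin and solithromycin added in many cases.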

S. aureus USA600, GISA = settings: S. aureus USA600, GISA; Gram-positive
How it was run: as §1

[1] = test system: S. pneumoniae erm B + mef A genotype; settings: S. pneumoniae erm B + mef A genotype; Gram-positive
How it was run: as §1

S. aureus MRSA: USA100 = settings: S. aureus MRSA: USA100; Gram-positive
How it was run: as §1

E. coli TEM-1 = settings: E. coli TEM-1; Gram-negative
How it was run: as §1

K. pneumoniae TEM-10 = settings: Gram-negative
E. coli NDM-1 = settings: Gram-negative
How it was run: as §1

H. influenzae ATCC49247 = settings: Gram-negative
How it was run: as §1

[2] = test system: S. pneumoniae mef A genotype (second strain so labelled); settings: Gram-positive
How it was run: as §1

E. coli ATCC 25922 = settings: E. coli ATCC 25922; Gram-negative
How it was run: as §1

E. coli CTX-M-14 = settings: Gram-negative
How it was run: as §1

S. aureus erm A genotype = settings: S. aureus erm A genotype; Gram-positive
How it was run: as §1

S. aureus ATCC 29213 = settings: S. aureus ATCC 29213; Gram-positive
How it was run: as §1

S. aureus MRSA: USA300 = settings: S. aureus MRSA: USA300; Gram-positive
How it was run: as §1

E. faecalis ATCC 29212 = settings: E. faecalis ATCC 29212; Gram-positive
[3] = test system: E. faecalis Vancomycin-resistant; settings: E. faecalis Vancomycin-resistant; Gram-positive
K. pneumoniae SHV-12 = settings: Gram-negative
K. pneumoniae ATCC 10031 = settings: K. pneumoniae ATCC 10031; Gram-negative
A. baumannii IMP-4 = settings: Gram-negative
[4] = test system: P. aeruginosa HPA101-1477; settings: Gram-negative
S. pyogenes ATCC 19615 = settings: S. pyogenes ATCC 19615; Gram-positive
K. pneumoniae KPC-2 = settings: Gram-negative
A. baumannii ATCC 19606 = settings: A. baumannii ATCC 19606; Gram-negative
[5] = test system: S. pyogenes Macrolide-resistant; settings: S. pyogenes Macrolide-resistant; Gram-positive
P. aeruginosa ATCC 27853 = settings: P. aeruginosa ATCC 27853; Gram-negative
[6] = test system: A. baumannii chromosomal class C; settings: Gram-negative
[7] = test system: A. baumannii imipenem-resistant; settings: Gram-negative
[8] = test system: H. influenzae Erythro >4, Azithro 1; settings: H. influenzae Erythro >4, Azithro 1; Gram-negative
Excerpt: MIC data was collected for the novel macrolides that this platform has produced against over 21 unique strains of B. subtilis, E. coli, S. aureus, S. pneumoniae, and H. influenzae, including several multidrug-resistant strains, with a special focus on macrolide resistant mechanisms (vide supra). […] CLSI standard procedures for broth dilution MIC determination were used. […] These genotypes can be constitutive or inducible.

SMILES	MIC (S. pneumoniae ATCC 49619)	MIC (S. aureus USA600, GISA)	MIC [1]	MIC (S. aureus MRSA: USA100)	MIC (E. coli TEM-1)	MIC (K. pneumoniae TEM-10)	MIC (E. coli NDM-1)	MIC (H. influenzae ATCC49247)	MIC [2]	MIC (E. coli ATCC 25922)	MIC (E. coli CTX-M-14)	MIC (S. aureus erm A genotype)	MIC (S. aureus ATCC 29213)	MIC (S. aureus MRSA: USA300)	MIC (E. faecalis ATCC 29212)	MIC [3]	MIC (K. pneumoniae SHV-12)	MIC (K. pneumoniae ATCC 10031)	MIC (A. baumannii IMP-4)	MIC [4]	also measured
CC[C@H]1OC(=O)[C@H](C)C(=O)[C@H](C)[C@@H](O[C@@H]2OC(C)CC(N(C)C)C2O)[C@](C)(OC)C[C@@H](C)C(=O)[C@H](C)[C@H]2N(CC#CCn3cc(-c4cccc(N)c4)nn3)C(=O)O[C@]12C (stereo partly drawn) [FSM-100239]	≤ 0.0312 µg/mL	> 32 µg/mL	0.0625 µg/mL	> 32 µg/mL	16 µg/mL (≈ 19.4 µM)	32 µg/mL (≈ 38.9 µM)	> 32 µg/mL	1 µg/mL (≈ 1.22 µM)	≤ 0.0312 µg/mL	16 µg/mL (≈ 19.4 µM)	> 32 µg/mL	> 32 µg/mL	≤ 0.0312 µg/mL	0.25 µg/mL (≈ 0.304 µM)	≤ 0.0312 µg/mL	16 µg/mL (≈ 19.4 µM)	> 32 µg/mL	4 µg/mL (≈ 4.86 µM)	> 32 µg/mL	> 32 µg/mL	MIC (S. pyogenes ATCC 19615): ≤ 0.0312 µg/mL; MIC (K. pneumoniae KPC-2): > 32 µg/mL; MIC (A. baumannii ATCC 19606): 8 µg/mL (≈ 9.72 µM); MIC [5]: ≤ 0.0312 µg/mL; MIC (P. aeruginosa ATCC 27853): > 32 µg/mL; MIC [6]: 2 µg/mL (≈ 2.43 µM); MIC [7]: 4 µg/mL (≈ 4.86 µM); MIC [8]: 1 µg/mL (≈ 1.22 µM)
CC[C@H]1OC(=O)[C@H](C)C(=O)[C@H](C)[C@@H](O[C@@H]2OC(C)CC(N(C)C)C2O)[C@](C)(OC)C[C@@H](C)C(=O)[C@H](C)[C@H]2N(CC3CC3Cn3cc(-c4cccc(N)c4)nn3)C(=O)O[C@]12C (single isomer, unassigned) [FSM-100434]	< 0.0312 µg/mL	> 32 µg/mL	1 µg/mL	> 32 µg/mL	> 32 µg/mL	> 32 µg/mL	> 32 µg/mL	> 32 µg/mL	0.125 µg/mL (≈ 0.149 µM)	> 32 µg/mL	> 32 µg/mL	> 32 µg/mL	0.25 µg/mL (≈ 0.298 µM)	> 32 µg/mL	< 0.0312 µg/mL	> 32 µg/mL	> 32 µg/mL	32 µg/mL (≈ 38.1 µM)	> 32 µg/mL	> 32 µg/mL	MIC (S. pyogenes ATCC 19615): < 0.0312 µg/mL; MIC (K. pneumoniae KPC-2): > 32 µg/mL; MIC (A. baumannii ATCC 19606): 16 µg/mL (≈ 19.1 µM); MIC [5]: < 0.0312 µg/mL; MIC (P. aeruginosa ATCC 27853): > 32 µg/mL; MIC [6]: 16 µg/mL (≈ 19.1 µM); MIC [7]: 16 µg/mL (≈ 19.1 µM); MIC [8]: > 32 µg/mL
CC[C@H]1OC(=O)[C@@](C)(F)C(=O)[C@H](C)[C@@H](O[C@@H]2OC(C)CC(N(C)C)C2O)[C@](C)(OC)C[C@@H](C)C(=O)[C@H](C)[C@H]2N(C/C=C\Cn3cc(-c4cccc(N)c4)nn3)C(=O)O[C@]12C (stereo partly drawn) [FSM-100431]	< 0.0312 µg/mL	> 32 µg/mL	8 µg/mL	> 32 µg/mL	> 32 µg/mL	> 32 µg/mL	> 32 µg/mL	> 32 µg/mL	< 0.0312 µg/mL	> 32 µg/mL	> 32 µg/mL	> 32 µg/mL	0.125 µg/mL (≈ 0.148 µM)	> 32 µg/mL	< 0.0312 µg/mL	> 32 µg/mL	> 32 µg/mL	32 µg/mL (≈ 38 µM)	> 32 µg/mL	> 32 µg/mL	MIC (S. pyogenes ATCC 19615): < 0.0312 µg/mL; MIC (K. pneumoniae KPC-2): > 32 µg/mL; MIC (A. baumannii ATCC 19606): 16 µg/mL (≈ 19 µM); MIC [5]: < 0.0312 µg/mL; MIC (P. aeruginosa ATCC 27853): > 32 µg/mL; MIC [6]: 8 µg/mL (≈ 9.49 µM); MIC [7]: 16 µg/mL (≈ 19 µM); MIC [8]: > 32 µg/mL
